Experimental data as given in patent US20020039780A1, “Salicyclic acid inducible genes and promoters” (priority 1998, published 2002).

How the values were obtained:
Format in all cases: cell-based
[1] = system: C18-1/EREBP1; experiment: Northern analysis of mRNA accumulation in cultured tobacco cells
Protocol: FIG. 2. Time course of SA-induced gene expression. Northern analysis of representative differential display genes following treatment of cultured tobacco cells with SA for the indicated time (in hours, except lanes 2-4, which refer to 10, 20, and 30 min.). Twenty micrograms of total RNA was loaded per lane. Blots were hybridized with ddPCR fragments indicated at right or with the β-ATPase gene as a loading control probe. Autoradiogram exposure times were optimized for each gene. […] Labels on left indicate response class.
FIG. 4. Specificity of induction among SA analogs and other signalling compounds. Northern analysis of representative differential display genes following treatment of tobacco cells with 100 μM or 1 mM (left and right side of triangles, respectively) of the following chemicals for 2-2.5 hr: salicylic acid (SA, lanes 4 and 5), acetylSA (ASA, lanes 6 and 7), benzoic acid (BA, lanes 8 and 9), 4-hydroxybenzoic (4HBA, lanes 10 and 11), thiamine (thia, lanes 12 and 13), methyljasmonate (MJ, lanes 14 and 15), abscisic acid (ABA, lanes 16 and 17), or 2,4-dichlorophenoxyacetic acid (2,4-D, lanes 18 and 19). Control treatments are H2O (H, lane 1), 1% ethanol (E, solvent concentration in MJ treatments, lane 2), or 1% DMSO (D, solvent concentration in 2,4D treatments, lane 3). Blots were hybridized with ddPCR fragments indicated at right or with the β-ATPase geneas a loading control probe. Autoradiogram exposure times were optimized for each gene. […] Labels on left indicate response class.
FIG. 5. Dose response of C18-1 and G8-1 to a range of chemicals. Northern analysis of tobacco cell cultures with eight concentrations of SA, ASA, BA, 4HBA, Thia, MJ, ABA, 2,4-D, or H2O for 2-2.5 hr. Concentrations were 0.1, 1, 3, 10, 30, 100, 300 μM or […], as indicated.
FIG. 6. […] Graphic representation of mRNA accumulation of G8-1 ( ), C18se -1 (♦), and IEGT (o) in response to a 2-2.5 hr incubation of cultured tobacco cells with a range of SA concentrations. RNA gel blots were quantitated by phosphorimaging analysis and normalized relative to the β-ATPase gene loading control (not shown).
(§1) Differential display technology (Liang, P. and Pardee, A. B., Science 257: 967-971, 1992) was used to identify genes activated in the presence of SA, CHX and both. Therefore the absence or presence of SA, induction at 3 timepoints of SA-treatment, 2 different concentrations of SA and the effect of addition of CHX were measured. Seven treatments in total were performed. Treatment of tobacco BY-2 suspension cells and leaves and differential display PCR reactions were performed as described (Horvath and Chua (1996), Plant Mol. Biol. 31, 1061-1072).
The kinetics of induction were examined in detail through time course experiments for representative clones of each class (FIG. 2).
The specificity for induction by SA was tested by treating tobacco cells with a range of SA analogs and plant signalling compounds at 0.1 and 1 mM for approximately 2.5 h. […] Several genes, including those for proteinase inhibitors and lipoxygenase (Hildmann, T. et al., Plant Cell 4: 1157-1170, 1992; Melan, M. A. et al., Plant Physiol. 101: 441-450, 1993; Xu, D. et al., Plant Mol. Biol. 22: 573-588, 1993) are known to be under dual regulation by MJ and ABA.
A dose-response curve was made for SA. Therefore tobacco cells were treated with SA in a range of concentrations from 0.1 μM to 2 mM.

[2] = system: IEGT-Luc1 lines; experiment: Promoter-luciferase reporter activity in leaves of transgenic tobacco; settings: leaf halves infiltrated with 1 mM SA for 4-12 hours; six out of ten lines
Protocol: (§2) FIG. 8. A. Schematic representation of the set-up of the experiment investigating SA-inducible gene expression in plants carrying a promoter-luciferase reporter construct. Parts of the leaves of transgenic plants are harvested, split and one half treated by infiltration by SA. The other half is treated with water. Then both halves are sprayed with luciferin solution and tested for luminescence. B. Results of the experiment using leaves of tobacco transgenic for the IEGT/G1-1 promoter-luciferase reporter construct. On the picture, the lefthand side of the leave was infiltrated with SA, the right hand side infiltrated with water. Increased luminescence is indicated by the lighter colors.
(§3) Amplified fragments were digested with BamHI and HindIII and subcloned into BamHI and HindIII-digested vector VIP11•-FFLuc (Anderson et al., 1994, Plant J. 4, 457-470) containing the firefly luciferase gene. This vector positions the promoter sequences directly upstream the promoterless FFLuc gene. […]
(§4) Leaves of primary transformants or S1 progeny were tested for reporter gene activity by excising halves of the leaves, splitting and infiltration with either water or 1 mM SA for 4-12 hours. Leaves were then sprayed with the reporter substrate luciferin (1 mM luciferin with 0.1% Triton X-100 in water) and the luminescence counted by video-imaging and quantitation equipment (schematically shown in FIG. 8A).

[3] = system: IEGT-Luc2 lines; experiment: as above; settings: leaf halves infiltrated with 1 mM SA or water for 4-12 hours; all ten lines
Protocol: as §2, §3, §4

[4] = system: Class I genes; experiment: Northern analysis of poly(A) mRNA from treated tobacco cells; settings: SA at 2, 4 or 8 h; 71 μM CHX 5 hrs; CHX + 200 μM SA
Protocol: (§5) FIG. 1. Four classes of SA-induced early genes. Northern analysis of genes identified by differential display. Gel-purified DNA fragments produced by ddPCR were either used directly for random-primed labeling and probing of Northern filters (e.g. C7-1, C6-1, and G9-2) or first subcloned and released by restriction digest. Each lane contains 1 μg of poly(A) mRNA from cultured tobacco cells treated with (1) H2O, 4 hr; (2) 200 μM SA, 4 hr; (3) 71 μM CHX, 5 hr; (4) 71 μM CHX, 5 hr plus 200 μM SA after 1 hr (4 hr total); (5) 20 μM SA, 2 hr; (7) 200 μM SA, 8 hr. One blot was sequentially hybridized with the G1-1 fragment and the β-ATPase gene as a loading control probe. response classes (I-IV) are indicated on the left of the autoradiograms.
as §1
(§6) Fiftytwo were recovered for testing on poly(A)+Northern blots loaded with mRNA derived from cells from each of the treatments.

[5] = system: class II genes; experiment: as above; settings: SA at 2, 4, 8 h; 71 μM CHX 5 hrs; CHX + 200 μM SA
Protocol: as §5, §1, §6

[6] = system: class IV genes (G3-2 and C14-1b); experiment: as above; settings: SA at 2, 4, 8 h; 71 μM CHX 5 hrs
Protocol: as §5, §1, §6

EC50 ([1]; Nicotiana tabacum, tobacco cells, SA 0.1 μM to 2 mM, 2-2.5 hr, read-out: concentration of SA required for half of the maximum level of C18-1/EREBP1 expression): 100 to 150 µM
luciferase activity [3]: only baseline activity
Compound: O=C(O)c1ccccc1O [SA, salicylic acid]
C18-1/EREBP1 induction at 0.1 mM versus 1 mM ([1]; 0.1 and 1 mM, approximately 2.5 h): greater induction at 1mM
response zone of C18-1/EREBP1 to SA concentration ([1]; SA 0.1 μM to 2 mM): narrow response zone
time of decay of C18-1/EREBP1 mRNA to background levels ([1]; SA time course): ≤ 4.5 h
time of peak C18-1/EREBP1 mRNA ([1]; SA time course): 2 h
SA-induced luciferase expression over controls [2]: 2.3-6 fold
mRNA induction of Class I genes [4]: little if any detectable mRNA accumulation
mRNA induction of class II genes [5]: rapid and transient
mRNA induction of class IV genes [6]: rapid and sustained induction
